Patent US10722516B2, “Use of landiolol hydrochloride in the long-term treatment of tachyarrhythmias” (AOP Orphan Pharmaceuticals AG, priority 2013, dated 2020)
Counter-ions that a name gives are not always drawn.

Legend:
healthy volunteers [1] = test: 24 h long-term infusion study: local tolerability and safety; format: in vivo, human; settings: 24 h infusion
Method: (§1) A single centre prospective, randomized, double blind, crossover, pharmacokinetic, safety and tolerability study to compare long-term infusion administration of AOP LDLL600 against esmolol in healthy volunteers was performed.
(§2) Landiolol hydrochloride lyophilized (LDLL600) comprises 600 mg landiolol hydrochloride, 600 mg mannitol, pH 6.5. The primary packing of LDLL600 is 50 ml vial, the reconstitution volume is 50 ml and the final product concentration is 12 mg/mL landiolol HCl.
(§3) 12 subjects were administered AOP LDLL600 or Esmolol (Brevibloc, 2500 mg/250 ml) in 1:1 ratio in double-blind, randomized, cross-over setting. PK, systemic cardiovascular and local tolerability and safety of the 24 h-long term infusions of three dose levels of both IMPs during each treatment period were assessed.
(§4) Landiolol was infused over 24 h in a dose of 10 μg/KG/min (2 hrs), followed by 20 μg/KG/min (2 hrs), followed by 40 μg/KG/min for 20 hrs.
(§5) Dosing algorithm was body weight divided by 20, 10 and 5 in ml/h giving 10, 20 and 40 μg/KG/min at a concentration of 12 mg/ml. No severe adverse drug reactions, mild local reactions, 1 severe local reaction (Esmolol High Dose).
(§6) Landiolol was infused over 24 h in a dose of 10, 20 and 40 μg/KG/min, i.e. 10 μg/KG/min landiolol were administered for 2 hrs, followed by 2 hrs administration of 20 μg/KG/min and further followed by 20 hrs administration of 40 μg/KG/min.

[2] = after discontinuing the drug; cited from earlier work
[3] = biological target: adrenergic β1 adrenoreceptor (Homo sapiens, UniProt P08588); settings: bolus followed by a continuous infusion; cited from earlier work
healthy volunteers [4] = test: 24 h long-term infusion study, AOP LDLL600 against esmolol: heart rate; format: in vivo, human
Method: as §1, §2, §3, §4, §5, §6
Post-infusion follow up measurements were performed immediately after 20 hrs administration study, i.e. 2, 4 min etc. after stop of landiolol administration.

[5] = FU Predose (end of 20 h HD, infusion stop)
[6] = FU post-infusion, 20 h 2 min (2 min after infusion stop)
[7] = FU post-infusion, 20 h 4 min (4 min after infusion stop)
[8] = FU post-infusion, 20 h 6 min (6 min after infusion stop)
[9] = FU post-infusion, 20 h 8 min (8 min after infusion stop)
[10] = FU post-infusion, 20 h 12 min (12 min after infusion stop)
[11] = FU post-infusion, 20 h 16 min (16 min after infusion stop)
[12] = FU post-infusion, 20 h 20 min (20 min after infusion stop)
[13] = FU post-infusion, 20 h 30 min (30 min after infusion stop)
[14] = FU post-infusion, 21 h (1 h after infusion stop)
[15] = FU post-infusion, 22 h (2 h after infusion stop)
[16] = FU post-infusion, 24 h (4 h after infusion stop)
[17] = FU post-infusion, 26 h (6 h after infusion stop)
[18] = HD infusion (landiolol 40, esmolol 200 μg/kg/min, after LD and MD), 2 min
[19] = HD infusion (landiolol 40, esmolol 200 μg/kg/min, after LD and MD), 3 min
[20] = HD infusion (landiolol 40, esmolol 200 μg/kg/min, after LD and MD), 4 min
[21] = HD infusion (landiolol 40, esmolol 200 μg/kg/min, after LD and MD), 6 min
[22] = HD infusion (landiolol 40, esmolol 200 μg/kg/min, after LD and MD), 8 min
[23] = HD infusion (landiolol 40, esmolol 200 μg/kg/min, after LD and MD), 12 min
[24] = HD infusion (landiolol 40, esmolol 200 μg/kg/min, after LD and MD), 16 min
[25] = HD infusion (landiolol 40, esmolol 200 μg/kg/min, after LD and MD), 20 min
[26] = HD infusion (landiolol 40, esmolol 200 μg/kg/min, after LD and MD), 30 min
[27] = HD infusion (landiolol 40, esmolol 200 μg/kg/min, after LD and MD), 60 min
[28] = HD infusion (landiolol 40, esmolol 200 μg/kg/min, after LD and MD), 90 min
[29] = HD infusion (landiolol 40, esmolol 200 μg/kg/min, after LD and MD), 2 h
[30] = HD infusion (landiolol 40, esmolol 200 μg/kg/min, after LD and MD), 4 h
[31] = HD infusion (landiolol 40, esmolol 200 μg/kg/min, after LD and MD), 8 h
[32] = HD infusion (landiolol 40, esmolol 200 μg/kg/min, after LD and MD), 12 h
[33] = HD infusion (landiolol 40, esmolol 200 μg/kg/min, after LD and MD), 16 h
[34] = HD infusion (landiolol 40, esmolol 200 μg/kg/min, after LD and MD), 20 h (end)

adrenergic β1 adrenoreceptor, sequence (P08588 whole entry, the tested form may be a part): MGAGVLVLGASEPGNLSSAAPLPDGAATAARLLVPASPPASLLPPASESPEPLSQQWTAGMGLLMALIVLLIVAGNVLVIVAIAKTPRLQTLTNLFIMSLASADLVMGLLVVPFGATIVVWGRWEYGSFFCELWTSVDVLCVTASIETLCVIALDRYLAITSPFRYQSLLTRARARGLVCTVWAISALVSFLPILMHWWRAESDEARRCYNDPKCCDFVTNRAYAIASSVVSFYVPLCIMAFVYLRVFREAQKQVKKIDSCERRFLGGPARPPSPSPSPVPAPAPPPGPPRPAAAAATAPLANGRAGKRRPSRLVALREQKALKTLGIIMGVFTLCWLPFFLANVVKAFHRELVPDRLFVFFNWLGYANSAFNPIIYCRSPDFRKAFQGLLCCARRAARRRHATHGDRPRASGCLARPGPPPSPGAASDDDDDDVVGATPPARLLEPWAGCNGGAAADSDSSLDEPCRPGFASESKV

Q: With COC(=O)CCc1ccc(OCC(O)CNC(C)C)cc1 (stereo not drawn) [Esmolol, Esmolol hydrochloride] as the molecule, how does the “local reactions (percent of subjects)” value (healthy volunteers [1]; three dose levels) read?
A: The value was 50.0%.

Q: And the “local reactions (subjects/total)” value (healthy volunteers [1]; three dose levels)?
A: The value was 7/14.

Q: What about the “severe local reaction (number)” value (healthy volunteers [1]; Esmolol High Dose (200 μg/kg/min)) of the same molecule?
A: Its value is 1.

Q: What about the “time to resolution of hypotension symptoms” value [2] of the same molecule?
A: The value was at most 30 min.

Q: And the onset of activity [3]?
A: The onset of activity was at most 2 min.

Q: What about the “time to 90% of steady-state beta-blockade” value [3] of the same molecule?
A: Its value is at most 5 min.

Q: And the “change of heart rate from predose, Mean (SD)” value (“change of heart rate … (SD)” below) (healthy volunteers [4]; [5])?
A: The value was 1.5 (9.05) beats per minute.

Q: What about the “heart rate, Mean (SD)” value (healthy volunteers [4]; [5]) of the same molecule?
A: The value was 69.1 (6.40) beats per minute.

Q: What about the “change of heart rate … (SD)” value (healthy volunteers [4]; [6]) of the same molecule?
A: The value was 1.4 (7.57) beats per minute.

Q: And the “heart rate, Mean (SD)” value (healthy volunteers [4]; [6])?
A: The value was 69.0 (4.88) beats per minute.

Q: What about the “change of heart rate … (SD)” value (healthy volunteers [4]; [7]) of the same molecule?
A: Its value is 3.6 (8.77) beats per minute.

Q: What about the “heart rate, Mean (SD)” value (healthy volunteers [4]; [7]) of the same molecule?
A: The value was 71.3 (7.04) beats per minute.

Q: And the “change of heart rate … (SD)” value (healthy volunteers [4]; [8])?
A: Its value is 5.4 (8.11) beats per minute.

Q: And the “heart rate, Mean (SD)” value (healthy volunteers [4]; [8])?
A: Its value is 73.1 (7.89) beats per minute.

Q: What about the “change of heart rate … (SD)” value (healthy volunteers [4]; [9]) of the same molecule?
A: Its value is 5.4 (8.10) beats per minute.

Q: What about the “heart rate, Mean (SD)” value (healthy volunteers [4]; [9]) of the same molecule?
A: Its value is 73.1 (7.57) beats per minute.

Q: And the “change of heart rate … (SD)” value (healthy volunteers [4]; [10])?
A: The value was 7.1 (8.43) beats per minute.

Q: What about the “heart rate, Mean (SD)” value (healthy volunteers [4]; [10]) of the same molecule?
A: The value was 74.7 (8.62) beats per minute.

Q: What about the “change of heart rate … (SD)” value (healthy volunteers [4]; [11]) of the same molecule?
A: Its value is 6.4 (7.44) beats per minute.

Q: And the “heart rate, Mean (SD)” value (healthy volunteers [4]; [11])?
A: The value was 74.0 (7.99) beats per minute.

Q: And the “change of heart rate … (SD)” value (healthy volunteers [4]; [12])?
A: Its value is 6.8 (7.17) beats per minute.

Q: What about the “heart rate, Mean (SD)” value (healthy volunteers [4]; [12]) of the same molecule?
A: The value was 74.4 (7.04) beats per minute.

Q: What about the “change of heart rate … (SD)” value (healthy volunteers [4]; [13]) of the same molecule?
A: Its value is 9.1 (8.04) beats per minute.

Q: And the “heart rate, Mean (SD)” value (healthy volunteers [4]; [13])?
A: Its value is 76.8 (8.51) beats per minute.

Q: And the “change of heart rate … (SD)” value (healthy volunteers [4]; [14])?
A: Its value is 5.5 (8.15) beats per minute.

Q: What about the “heart rate, Mean (SD)” value (healthy volunteers [4]; [14]) of the same molecule?
A: Its value is 73.1 (7.50) beats per minute.

Q: And the “change of heart rate … (SD)” value (healthy volunteers [4]; [15])?
A: Its value is 2.6 (8.02) beats per minute.

Q: And the “heart rate, Mean (SD)” value (healthy volunteers [4]; [15])?
A: The value was 70.2 (7.06) beats per minute.

Q: And the “change of heart rate … (SD)” value (healthy volunteers [4]; [16])?
A: Its value is 4.5 (9.51) beats per minute.

Q: And the “heart rate, Mean (SD)” value (healthy volunteers [4]; [16])?
A: Its value is 72.1 (7.37) beats per minute.

Q: What about the “change of heart rate … (SD)” value (healthy volunteers [4]; [17]) of the same molecule?
A: The value was 5.1 (10.85) beats per minute.

Q: And the “heart rate, Mean (SD)” value (healthy volunteers [4]; [17])?
A: The value was 72.8 (9.74) beats per minute.

Q: And the “change of heart rate … (SD)” value (healthy volunteers [4]; HD Predose (end of 2 h MD))?
A: Its value is −3.9 (7.75) beats per minute.

Q: What about the “heart rate, Mean (SD)” value (healthy volunteers [4]; HD Predose (end of 2 h MD)) of the same molecule?
A: The value was 63.7 (4.86) beats per minute.

Q: And the “change of heart rate … (SD)” value (healthy volunteers [4]; [18])?
A: The value was −2.5 (8.96) beats per minute.

Q: And the “heart rate, Mean (SD)” value (healthy volunteers [4]; [18])?
A: Its value is 65.1 (7.10) beats per minute.

Q: And the “change of heart rate … (SD)” value (healthy volunteers [4]; [19])?
A: Its value is −3.2 (8.99) beats per minute.

Q: What about the “heart rate, Mean (SD)” value (healthy volunteers [4]; [19]) of the same molecule?
A: Its value is 64.4 (4.38) beats per minute.

Q: And the “change of heart rate … (SD)” value (healthy volunteers [4]; [20])?
A: The value was −3.1 (8.16) beats per minute.

Q: And the “heart rate, Mean (SD)” value (healthy volunteers [4]; [20])?
A: Its value is 64.5 (4.74) beats per minute.

Q: And the “change of heart rate … (SD)” value (healthy volunteers [4]; [21])?
A: The value was −2.8 (8.97) beats per minute.

Q: And the “heart rate, Mean (SD)” value (healthy volunteers [4]; [21])?
A: The value was 64.9 (4.29) beats per minute.

Q: And the “change of heart rate … (SD)” value (healthy volunteers [4]; [22])?
A: Its value is −3.7 (10.45) beats per minute.

Q: What about the “heart rate, Mean (SD)” value (healthy volunteers [4]; [22]) of the same molecule?
A: The value was 63.9 (7.14) beats per minute.

Q: And the “change of heart rate … (SD)” value (healthy volunteers [4]; [23])?
A: The value was −2.9 (9.19) beats per minute.

Q: What about the “heart rate, Mean (SD)” value (healthy volunteers [4]; [23]) of the same molecule?
A: The value was 64.8 (4.39) beats per minute.

Q: And the “change of heart rate … (SD)” value (healthy volunteers [4]; [24])?
A: The value was −3.3 (8.32) beats per minute.

Q: What about the “heart rate, Mean (SD)” value (healthy volunteers [4]; [24]) of the same molecule?
A: Its value is 64.4 (7.16) beats per minute.

Q: What about the “change of heart rate … (SD)” value (healthy volunteers [4]; [25]) of the same molecule?
A: The value was −0.4 (11.69) beats per minute.

Q: And the “heart rate, Mean (SD)” value (healthy volunteers [4]; [25])?
A: The value was 67.3 (7.26) beats per minute.

Q: And the “change of heart rate … (SD)” value (healthy volunteers [4]; [26])?
A: The value was −2.3 (9.26) beats per minute.

Q: What about the “heart rate, Mean (SD)” value (healthy volunteers [4]; [26]) of the same molecule?
A: Its value is 65.4 (5.69) beats per minute.

Q: What about the “change of heart rate … (SD)” value (healthy volunteers [4]; [27]) of the same molecule?
A: The value was 4.9 (9.60) beats per minute.

Q: And the “heart rate, Mean (SD)” value (healthy volunteers [4]; [27])?
A: Its value is 72.6 (6.64) beats per minute.

Q: And the “change of heart rate … (SD)” value (healthy volunteers [4]; [28])?
A: Its value is 5.9 (8.95) beats per minute.

Q: What about the “heart rate, Mean (SD)” value (healthy volunteers [4]; [28]) of the same molecule?
A: Its value is 73.6 (4.57) beats per minute.

Q: What about the “change of heart rate … (SD)” value (healthy volunteers [4]; [29]) of the same molecule?
A: Its value is 6.2 (9.32) beats per minute.

Q: And the “heart rate, Mean (SD)” value (healthy volunteers [4]; [29])?
A: Its value is 73.9 (4.55) beats per minute.

Q: And the “change of heart rate … (SD)” value (healthy volunteers [4]; [30])?
A: Its value is 2.8 (9.60) beats per minute.

Q: And the “heart rate, Mean (SD)” value (healthy volunteers [4]; [30])?
A: Its value is 70.4 (5.03) beats per minute.

Q: And the “change of heart rate … (SD)” value (healthy volunteers [4]; [31])?
A: The value was 0.3 (10.34) beats per minute.

Q: What about the “heart rate, Mean (SD)” value (healthy volunteers [4]; [31]) of the same molecule?
A: Its value is 67.9 (5.95) beats per minute.

Q: And the “change of heart rate … (SD)” value (healthy volunteers [4]; [32])?
A: The value was 0.7 (10.94) beats per minute.

Q: And the “heart rate, Mean (SD)” value (healthy volunteers [4]; [32])?
A: The value was 68.4 (8.30) beats per minute.

Q: What about the “change of heart rate … (SD)” value (healthy volunteers [4]; [33]) of the same molecule?
A: The value was 0.3 (9.27) beats per minute.

Q: What about the “heart rate, Mean (SD)” value (healthy volunteers [4]; [33]) of the same molecule?
A: Its value is 67.9 (7.49) beats per minute.

Q: What about the “change of heart rate … (SD)” value (healthy volunteers [4]; [34]) of the same molecule?
A: The value was 1.5 (9.05) beats per minute.

Q: What about the “heart rate, Mean (SD)” value (healthy volunteers [4]; [34]) of the same molecule?
A: Its value is 69.1 (6.40) beats per minute.

Q: And the “change of heart rate … (SD)” value (healthy volunteers [4]; LD infusion (landiolol 10, esmolol 50 μg/kg/min), 2 min)?
A: The value was −0.7 (6.22) beats per minute.
